Measurements as given in patent US8507690B2, “Thiazole derivative and use thereof as VAP-1 inhibitor” (R-Tech Ueno, Ltd., priority 2008, dated 2013).
Where a name gives a salt, the structure may show the parent alone.

Columns and labels:
rat VAP-1 enzyme (SSAO) = biological target: T1, rat VAP-1 enzyme (SSAO) (Rattus norvegicus, UniProt O08590); experiment: Enzyme activity inhibitory effect on rat VAP-1 enzyme (SSAO), radiochemical-enzyme assay with 14C-benzylamine; assay type: biochemical; conditions: rat VAP-1 (SSAO) cell extract, 14C-benzylamine 1×10^−5 mol/l, 37° C. 2 hours
T1 construct: made in house; cell extract used
T1 sequence (O08590 1-763): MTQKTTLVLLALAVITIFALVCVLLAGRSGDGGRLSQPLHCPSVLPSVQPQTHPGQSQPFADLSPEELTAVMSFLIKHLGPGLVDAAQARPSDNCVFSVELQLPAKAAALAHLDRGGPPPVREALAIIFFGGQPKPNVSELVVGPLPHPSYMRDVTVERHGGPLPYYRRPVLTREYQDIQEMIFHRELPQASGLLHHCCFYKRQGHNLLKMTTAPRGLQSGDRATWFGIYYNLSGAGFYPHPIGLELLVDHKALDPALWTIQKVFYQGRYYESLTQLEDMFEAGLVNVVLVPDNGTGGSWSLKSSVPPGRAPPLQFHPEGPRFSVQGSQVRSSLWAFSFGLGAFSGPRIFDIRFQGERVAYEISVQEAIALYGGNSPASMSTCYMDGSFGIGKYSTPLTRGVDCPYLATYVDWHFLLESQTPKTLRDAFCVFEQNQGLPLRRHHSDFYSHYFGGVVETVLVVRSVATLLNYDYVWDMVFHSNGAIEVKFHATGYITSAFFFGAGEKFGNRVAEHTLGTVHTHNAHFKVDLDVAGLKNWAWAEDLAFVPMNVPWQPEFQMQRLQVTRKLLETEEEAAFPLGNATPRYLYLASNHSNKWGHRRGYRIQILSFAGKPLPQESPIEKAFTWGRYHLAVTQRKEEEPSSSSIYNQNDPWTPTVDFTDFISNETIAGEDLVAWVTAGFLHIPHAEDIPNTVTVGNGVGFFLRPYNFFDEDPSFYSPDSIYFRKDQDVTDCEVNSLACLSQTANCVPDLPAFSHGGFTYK
Protocol: (§1) The compounds of the present invention obtained in Production Examples were examined for the enzyme activity inhibitory effect on human and rat VAP-1 enzyme (SSAO) by the following method.
(§2) The VAP-1 enzyme (SSAO) activity in both human and rat was measured by a radiochemical-enzyme assay using ^14C-benzylamine as an artificial substrate. Human or rat VAP-1 was cloned from the cDNA library and expressed in a cell. The cell extract was preincubated with a test compound solution (final concentration 1×10^−7-1×10^−11 mol/l) at room temperature for 20 minutes. Then, ^14C-benzylamine (final concentration 1×10^−5 mol/l) was added, and the mixture was incubated at a final volume of 200 μl at 37° C. for 2 hours. The enzyme reaction was stopped by addition of 2 mol/l (200 μl) citric acid. The oxidation product was extracted with 1 ml toluene/ethyl acetate (1:1), and the radioactivity thereof was measured by a liquid scintillation counter.

[1] = biological target: T2, human VAP-1 enzyme (SSAO) (Homo sapiens, UniProt Q16853); experiment: Enzyme activity inhibitory effect on human VAP-1 enzyme (SSAO), radiochemical-enzyme assay with 14C-benzylamine; assay type: biochemical; conditions: human VAP-1 (SSAO) cell extract, 14C-benzylamine 1×10^−5 mol/l, 37° C. 2 hours
T2 construct: made in house; cell extract used
T2 sequence (Q16853 1-763): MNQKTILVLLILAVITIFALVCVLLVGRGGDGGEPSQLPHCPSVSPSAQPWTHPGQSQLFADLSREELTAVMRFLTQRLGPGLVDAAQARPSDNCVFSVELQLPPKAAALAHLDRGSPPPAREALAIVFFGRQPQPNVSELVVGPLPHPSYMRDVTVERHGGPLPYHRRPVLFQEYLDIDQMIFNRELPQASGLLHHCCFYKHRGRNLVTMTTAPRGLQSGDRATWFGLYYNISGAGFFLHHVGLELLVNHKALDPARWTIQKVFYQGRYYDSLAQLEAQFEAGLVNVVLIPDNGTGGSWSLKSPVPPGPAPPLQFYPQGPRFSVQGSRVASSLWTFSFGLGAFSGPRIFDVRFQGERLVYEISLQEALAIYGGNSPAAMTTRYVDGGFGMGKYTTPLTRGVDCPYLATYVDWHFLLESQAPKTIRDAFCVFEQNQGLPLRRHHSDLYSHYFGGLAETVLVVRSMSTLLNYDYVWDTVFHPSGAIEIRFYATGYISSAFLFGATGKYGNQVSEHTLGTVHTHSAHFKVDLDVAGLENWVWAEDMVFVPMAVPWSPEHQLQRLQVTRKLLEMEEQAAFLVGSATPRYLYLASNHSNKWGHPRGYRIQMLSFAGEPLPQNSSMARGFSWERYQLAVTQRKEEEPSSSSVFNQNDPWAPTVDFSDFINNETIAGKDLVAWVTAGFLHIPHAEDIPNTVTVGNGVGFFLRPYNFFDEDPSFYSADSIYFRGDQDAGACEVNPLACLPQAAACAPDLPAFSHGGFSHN
Protocol: as §1, §2

| SMILES | melting point [°C] | IC50 (rat VAP-1 enzyme (SSAO)) [nM] | IC50 [1] [nM] |
| --- | --- | --- | --- |
| CC(=O)Nc1nc(CCc2cccc(OC(=O)NN)c2)cs1 (as salt: hydrochloride) | 158 to 162 | – | – |
| CC(=O)Nc1nc(CCc2ccc(CNC(=O)NN)cc2F)cs1 (as salt: hydrochloride) | 165 to 169 | – | – |
| CC(=O)Nc1nc(CCc2csc(CCCNC(=O)NN)c2)cs1 (as salt: hydrochloride) | 153 to 156 | – | – |
| CC(=O)Nc1nc(CCc2cc(CCCNC(=O)NN)cs2)cs1 (as salt: hydrochloride) [Production Example 32, N-[3-(5-{2-[2-(acetylamino)-1,3-thiazol-4-yl]ethyl}thiophen-3-yl)propyl]hydrazinecarboxamide hydrochloride] | 111 to 115 | – | – |
| CC(=O)Nc1nc(CCc2ccc(CSC(=O)NN)s2)cs1 (as salt: hydrochloride) [Production Example 36, S-[(5-{2-[2-(acetylamino)-1,3-thiazol-4-yl]ethyl}thiophen-2-yl)methyl]hydrazinecarbothioate hydrochloride] | 147 to 153 | – | – |
| CC(=O)Nc1nc(CCc2ccc(OC(=O)NN)cc2)cs1.Cl [Production Example 1, 4-{2-[2-(acetylamino)-1,3-thiazol-4-yl]ethyl}phenyl hydrazinecarboxylate hydrochloride] | 167 to 169 | 0.2 | 2.5 |
| CC(=O)Nc1nc(CCc2ccc(COC(=O)NN)cc2)cs1.Cl [Production Example 2, 4-{2-[2-(acetylamino)-1,3-thiazol-4-yl]ethyl}benzyl hydrazinecarboxylate hydrochloride] | 162 to 164 | 0.7 | 0.9 |
| CC(=O)Nc1nc(CCc2ccc(CCOC(=O)NN)cc2)cs1.Cl [Production Example 3, 2-(4-{2-[2-(acetylamino)-1,3-thiazol-4-yl]ethyl}phenyl)ethyl hydrazinecarboxylate hydrochloride] | 172 to 174 | 2.3 | 11.7 |
| CC(=O)Nc1nc(CCc2ccc(COC(=O)NN)c(F)c2)cs1.Cl [Production Example 4, 4-{2-[2-(acetylamino)-1,3-thiazol-4-yl]ethyl}-2-fluorobenzyl hydrazinecarboxylate hydrochloride] | 162 to 165 | 0.4 | 0.8 |
| CC(=O)Nc1nc(CCc2ccc(COC(=O)NN)cc2F)cs1.Cl [Production Example 5, 4-{2-[2-(acetylamino)-1,3-thiazol-4-yl]ethyl}-3-fluorobenzyl hydrazinecarboxylate hydrochloride] | 204 to 208 | 1.1 | 1.2 |
| CC(=O)Nc1nc(CCc2ccc(COC(=O)NN)c(F)c2F)cs1 [Production Example 6, 4-{2-[2-(acetylamino)-1,3-thiazol-4-yl]ethyl}-2,3-difluorobenzyl hydrazinecarboxylate hydrochloride] | – | 0.6 | 1.3 |
| CC(=O)Nc1nc(COc2ccc(CCOC(=O)NN)cc2)cs1 [Production Example 7, 2-(4-{[2-(acetylamino)-1,3-thiazol-4-yl]methoxy}phenyl)ethyl hydrazinecarboxylate] | 177 to 180 | 7.1 | 57 |
| CC(=O)Nc1nc(C(=O)Oc2ccc(CCOC(=O)NN)cc2)cs1.Cl [Production Example 8, 4-{2-[(hydrazinocarbonyl)oxy]ethyl}phenyl 2-(acetylamino)-1,3-thiazole-4-carboxylate hydrochloride] | 179 to 184 | 1.7 | 6.4 |
| CC(=O)Nc1nc(C(=O)Nc2ccc(CCOC(=O)NN)cc2)cs1.Cl [Production Example 9, 2-[4-({[2-(acetylamino)-1,3-thiazol-4-yl]carbonyl}amino)phenyl]ethyl hydrazinecarboxylate hydrochloride] | 225 to 233 | 1 | 17.1 |
| CC(=O)Nc1nc(CCc2cccc(COC(=O)NN)c2)cs1.Cl [Production Example 11, 3-{2-[2-(acetylamino)-1,3-thiazol-4-yl]ethyl}benzyl hydrazinecarboxylate hydrochloride] | 113 to 119 | 0.2 | 1.3 |
| CC(=O)Nc1nc(CCc2cccc(CCOC(=O)NN)c2)cs1.Cl [Production Example 12, 2-(3-{2-[2-(acetylamino)-1,3-thiazol-4-yl]ethyl}phenyl)ethyl hydrazinecarboxylate hydrochloride] | 138 to 140 | 0.5 | 3.2 |
| CC(=O)Nc1nc(CCc2ccc(COC(=O)NN)s2)cs1 [Production Example 13, {5-[2-(2-acetylamino-1,3-thiazol-4-yl)ethyl]thiophen-2-yl}methyl hydrazinecarboxylate hydrochloride] | – | 0.7 | 3.4 |
| CC(=O)Nc1nc(CCc2ccc(CCOC(=O)NN)s2)cs1 [Production Example 14, 2-(5-{2-[2-(acetylamino)-1,3-thiazol-4-yl]ethyl}thiophen-2-yl)ethyl hydrazinecarboxylate hydrochloride] | – | 5.3 | 5.1 |
| CC(=O)Nc1nc(CCc2ccc(CNC(=O)NN)c(F)c2F)cs1 [Production Example 22, N-(4-{2-[2-(acetylamino)-1,3-thiazol-4-yl]ethyl}-2,3-difluorobenzyl)hydrazinecarboxamide hydrochloride] | – | 2.2 | 5.5 |
| CC(=O)Nc1nc(CNc2ccc(CNC(=O)NN)cc2)cs1 [Production Example 23, N-[4-({[2-(acetylamino)-1,3-thiazol-4-yl]methyl}amino)benzyl]hydrazinecarboxamide dihydrochloride] | – | 8.4 | 16.8 |
| CC(=O)Nc1nc(C(=O)Nc2ccc(CNC(=O)NN)cc2)cs1.Cl [Production Example 24, 2-(acetylamino)-N-(4-{[hydrazinocarbonyl)amino]methyl}phenyl)-1,3-thiazole-4-carboxamide hydrochloride] | – | 1 | 7.3 |
| CC(=O)Nc1nc(C(=O)Nc2ccc(CNC(=O)NN)cc2)cs1.Cl [Production Example 24] | 231 to 234 | – | – |
| CC(=O)Nc1nc(COc2ccc(CCNC(=O)NN)cc2)cs1 [Production Example 25, N-[2-(4-{[2-(acetylamino)-1,3-thiazol-4-yl]methoxy}phenyl)ethyl]hydrazinecarboxamide trifluoroacetate] | – | 1.5 | 48.5 |
| CC(=O)Nc1nc(CCc2ccc(CSC(=O)NN)s2)cs1 [Production Example 36, S-[(5-{2-[2-(acetylamino)-1,3-thiazol-4-yl]ethyl}thiophen-2-yl)methyl]hydrazinecarbothioate hydrochloride] | – | 0.6 | 2.3 |
